This passage reports IC50 and Ki results from ChEMBL document CHEMBL4138060, “Development of new scaffolds as reversible tissue transglutaminase inhibitors, with improved potency or resistance to glutathione addition” (Medchemcomm, 2017).

SMILES strings stand for the structures.

Target in one test: not listed separately
The experiment in a line: Inhibition of guinea pig liver transglutaminase 2.
Settings: not given; call rule not given here
Also noted: species or system Cavia porcellus.
Consider `O=C(/C=C/c1ccc([N+](=O)[O-])cc1)c1cccnc1`, for which the IC50 – broadly, the concentration that gives 50% inhibition – turned out to be 21 µM.

`O=C(/C=C/c1ccc([N+](=O)[O-])cc1)n1nnc2ccccc21` returned an IC50 of 74 µM.

Molecule `O=C(/C=C/c1cccc([N+](=O)[O-])c1)c1cccnc1` displayed an IC50 of 3 µM.

A further test addresses T1, Protein-glutamine gamma-glutamyltransferase (Homo sapiens, UniProt P21980).
T1 sequence (P21980 whole entry): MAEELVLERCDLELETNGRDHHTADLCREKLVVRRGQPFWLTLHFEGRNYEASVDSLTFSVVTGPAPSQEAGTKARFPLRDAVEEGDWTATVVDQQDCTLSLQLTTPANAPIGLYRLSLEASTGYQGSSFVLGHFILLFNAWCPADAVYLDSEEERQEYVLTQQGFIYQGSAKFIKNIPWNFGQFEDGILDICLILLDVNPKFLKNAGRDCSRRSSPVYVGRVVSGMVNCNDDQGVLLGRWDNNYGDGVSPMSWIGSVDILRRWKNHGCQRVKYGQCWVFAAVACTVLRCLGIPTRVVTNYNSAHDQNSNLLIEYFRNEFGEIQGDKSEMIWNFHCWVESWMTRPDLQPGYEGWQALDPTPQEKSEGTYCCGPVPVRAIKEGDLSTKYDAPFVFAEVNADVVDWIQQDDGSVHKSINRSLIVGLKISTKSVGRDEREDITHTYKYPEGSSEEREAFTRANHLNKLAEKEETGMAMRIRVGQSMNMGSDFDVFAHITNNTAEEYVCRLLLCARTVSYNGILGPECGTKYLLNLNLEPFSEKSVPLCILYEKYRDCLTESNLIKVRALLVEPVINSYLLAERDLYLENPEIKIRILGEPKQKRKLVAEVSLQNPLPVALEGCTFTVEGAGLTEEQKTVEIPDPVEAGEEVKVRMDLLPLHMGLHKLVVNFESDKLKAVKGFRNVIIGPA
Briefly: Inhibition of human transglutaminase 2.
Settings: not given
As to `O=C(/C=C/c1cccc([N+](=O)[O-])c1)c1cccnc1`, the IC50 worked out at 19.6 µM and the affinity, expressed as Ki, was 4 µM.

Target in the next test: not listed separately
The experiment in a line: Inhibition of guinea pig liver transglutaminase 2 using N-Cbz-Glu(gamma-p-nitrophenylester)Gly (AL5) substrate measured over 10 mins by UV-visible spectrophotometry.
Settings: not given
On the set-up: species or system Cavia porcellus.
Turning to `O=C(/C=C/c1ccc([N+](=O)[O-])cc1)c1cn(Cc2ccc([N+](=O)[O-])cc2)nn1`, the concentration for half-maximal inhibition (IC50) stood at 2.1 µM.

With `O=C(/C=C/c1ccc([N+](=O)[O-])cc1)n1nnc2ccccc21`, inhibition was half-maximal at 74 µM (IC50).

Another test has as its target T1, Protein-glutamine gamma-glutamyltransferase. Briefly: Inhibition of human transglutaminase 2 using N-Cbz-Glu(gamma-p-nitrophenylester)Gly (AL5) substrate measured over 10 mins by UV-visible spectrophotometry.
Settings: not given
As to `CC(C)/C(=C\C(=O)n1nnc2ccccc21)c1ccc([N+](=O)[O-])cc1`, the IC50 entry is given as “Not Active”.

Take `O=C(c1cn(Cc2ccc([N+](=O)[O-])cc2)nn1)c1cn(CC2CCCCC2)nn1`: the IC50 result is listed as “Not Active”.

Regarding `O=C(c1cn(Cc2ccccc2)nn1)c1cn(Cc2ccc([N+](=O)[O-])cc2)nn1`, the concentration for half-maximal inhibition (IC50) entry was “Not Active”.

In the case of `O=[N+]([O-])c1cccc(-c2cc(-c3cccnc3)on2)c1`, the IC50 entry is listed as “Not Active”.

On to `CC(C)/C(=C/C(=O)n1nnc2ccccc21)c1ccc([N+](=O)[O-])cc1`, for which the IC50 entry is given as “Not Active”.

Regarding `COc1ccc(Cn2cc(C(=O)c3cn(Cc4ccc([N+](=O)[O-])cc4)nn3)nn2)cc1`, the 50% inhibitory concentration (IC50) result is “Not Active”.

In the case of `O=C(c1cn(Cc2ccc(Br)cc2)nn1)c1cn(Cc2ccc([N+](=O)[O-])cc2)nn1`, the half-maximal inhibitory concentration (IC50) entry is reported as “Not Active”.

Take `C/C(=C\C(=O)n1nnc2ccccc21)c1ccc([N+](=O)[O-])cc1`: the concentration for half-maximal inhibition (IC50) result is on record as “Not Active”.

`O=C(c1cn(Cc2ccc(C(F)(F)F)cc2)nn1)c1cn(Cc2ccc(C(F)(F)F)cc2)nn1`: the half-maximal inhibitory concentration (IC50) result is on record as “Not Active”.

On to `O=C(c1cn(Cc2ccc(F)cc2)nn1)c1cn(Cc2ccc([N+](=O)[O-])cc2)nn1`, for which the 50% inhibitory concentration (IC50) result was “Not Active”.

In the case of `Cc1ccc(Cn2cc(C(=O)c3cn(Cc4ccc([N+](=O)[O-])cc4)nn3)nn2)cc1`, the IC50 entry is listed as “Not Active”.

Still in this test, the particulars now being: read-out: IC50.
As for `O=C(C#Cc1ccc([N+](=O)[O-])cc1)c1cn(Cc2ccccc2)nn1`, the IC50 worked out at 0.61 µM.

Regarding `O=C(c1cn(Cc2ccc([N+](=O)[O-])cc2)nn1)c1cn(Cc2ccc([N+](=O)[O-])cc2)nn1`, the IC50 was 14.1 µM.

As to `O=C(C#Cc1ccc([N+](=O)[O-])cc1)c1cn(Cc2ccc([N+](=O)[O-])cc2)nn1`, the IC50 turned out to be 0.79 µM.

Regarding `O=[N+]([O-])c1cccc(/C=C/C2(c3cccnc3)CO2)c1` (stereo not drawn), the 50% inhibitory concentration (IC50) is 151 µM.

On to `O=C(c1cn(Cc2ccc(OC(F)(F)F)cc2)nn1)c1cn(Cc2ccc([N+](=O)[O-])cc2)nn1`, for which the concentration for half-maximal inhibition (IC50) is > 100 µM.

For the molecule `O=C(c1cc2cc([N+](=O)[O-])ccc2oc1=O)n1nnc2ccccc21`, the IC50 was determined as 145 µM.

As to `O=C(c1cccnc1)[C@H]1C[C@@H]1c1cccc([N+](=O)[O-])c1`, the IC50 is 147 µM.

Turning to `O=C(c1cn(Cc2ccc([N+](=O)[O-])cc2)nn1)c1cn(Cc2ccc(C(F)(F)F)cc2)nn1`, the 50% inhibitory concentration (IC50) amounted to 25.9 µM.

For the molecule `O=C(C#Cc1ccc([N+](=O)[O-])cc1)n1nnc2ccccc21`, the half-maximal inhibitory concentration (IC50) amounted to 2.6 µM.

With `N#Cc1ccc(Cn2cc(C(=O)c3cn(Cc4ccc([N+](=O)[O-])cc4)nn3)nn2)cc1`, the IC50 was > 100 µM.

On to `O=C(c1cn(Cc2ccc([N+](=O)[O-])cc2)nn1)c1cn(Cc2cccc([N+](=O)[O-])c2)nn1`, for which the 50% inhibitory concentration (IC50) was > 100 µM.

Consider `O=C(c1cn(Cc2ccc([N+](=O)[O-])cc2)nn1)c1cn(Cc2ccccc2[N+](=O)[O-])nn1`, for which the 50% inhibitory concentration (IC50) came out at 64.1 µM.

`O=C(/C=C/c1cccc([N+](=O)[O-])c1)c1cccnc1`: the IC50 turned out to be 19.6 µM.

Another test shares this target. The experiment in a line: Competitive inhibition of human transglutaminase 2 using N-Cbz-Glu(gamma-p-nitrophenylester)Gly (AL5) substrate measured over 10 mins by UV-visible spectrophotometry based Michaelis-Menten analysis.
Settings: not given
For the molecule `O=C(c1cn(Cc2ccc([N+](=O)[O-])cc2)nn1)c1cn(Cc2ccc([N+](=O)[O-])cc2)nn1`, the inhibitory constant (Ki) – broadly, the equilibrium dissociation constant of an inhibitor or competing ligand from its target – is 9.9 µM.

On to `O=C(C#Cc1ccc([N+](=O)[O-])cc1)c1cn(Cc2ccc([N+](=O)[O-])cc2)nn1`, for which the Ki turned out to be 0.42 µM.
